Read-outs that look alike come from different tables or passages of the source.
Legend:
Assay type in all cases: biochemical
PI3K alfa = biological target: T1, PI3K alfa (Homo sapiens, UniProt P42336); assay: PI3 kinase assay (Kinase-Glo luminescence), PI3K alfa
T1 construct: for the p110-a subunit (with a deletion of the first 20 amino acids); His tag (C); made in house; host or cells: baculovirus; Tn5 (Trichoplusia ni) or TiniPro insect cells
Protocol: (§1) In a more preferred assay, the kinase reaction is performed in a final volume of 10 μL per well of a low volume non binding CORNING, 384 well black plate (Cat. No. #3676). The final concentrations of ATP and phosphatidyl inositol (PI) in the assay are 1 μM and 10 μg/mL respectively. The reaction is started by the addition of ATP.
(§2) The components of the assay are added per well as follows:
(§3) 50 nL test compounds in 90% DMSO per well, in columns 1-20, 8 concentrations (1/3 and 1/3.33 serial dilution step) in single. • Low control: 50 nL of 90% DMSO in half the wells of columns 23-24 (0.45% in final). • High control: 50 nL of reference compound (e.g. compound of Example 7 in WO 2006/122806, incorporated by reference hereinin that regard) in the other half of columns 23-24 (2.5 μM in final). • Standard: 50 nL of reference compound as just mentioned diluted as the test compounds in columns 21-22 • 20 mL ‘buffer’ are prepared per assay: • 200 μL of 1M TRIS HCl pH7.5 (10 mM in final) • 60 μL of 1M MgCl2 (3 mM in final) • 500 μL of 2M NaCl (50 mM in final) • 100 μL of 10% CHAPS (0.05% in final) • 200 μL of 100 mM DTT (1 mM in final) • 18.94 mL of nanopure water • 10 mL ‘PI’ are prepared per assay: • 200 μL of 1 mg/ml L-alpha-Phosphatidylinositol (Liver Bovine, Avanti Polar Lipids Cat. No. 840042C MW=909.12) prepared in 3% OctylGlucoside (10 μg/ml in final) • 9.8 mL of ‘buffer’ • 10 mL ‘ATP’ are prepared per assay: • 6.7 μL of 3 mM stock of ATP giving a final concentration of 1 μM per well • 10 mL of ‘buffer’ • 2.5 mL of each PI3K construct are prepared per assay in ‘PI’ with the following final concentration : • 10 nM PI3K alfa B-1075 • 25 nM beta BV-949 • 10 nM delta BV-1060 • 150 nM gamma BV-950 • 5 μL of ‘PI/PI3K’ are added per well. • 5 μl ‘ATP’ are added per well to start the reaction. • The plates are then incubated at room temperature for 60 minutes (alfa, beta, delta) or 120 minutes (gamma). • The reaction is terminated by the addition of 10 μL Kinase-Glo (Promega Cat. No. #6714). • The assay plates are read after 10 minutes in Synergy 2 reader (BioTek, Vermont USA) with an integration time of 100 milliseconds and sensitivity set to 191. • Output : The High control is around 60'000 counts and the Low control is 30'000 or lower • This luminescence assay gives a useful Z′ ratio between 0.4 and 0.7
(§4) […] is determined by a four parameter curve fitting routine that comes aloneg with “excel fit”. A 4 Parameter logistic equation is used to calculate IC50 values (IDBS XLfit) of the percentage inhibition of each compound at 8 concentrations (usually 10, 3.0, 1.0, 0.3, 0.1, 0.030, 0.010 and […]). Alternatively, IC50 values are calculated using idbsXLfit model 204, which is a 4 parameter logistic model.
(§5) Testing with the following kinases in the test system mentioned above, with the kinases given in the following tables, the following IC 50 data can be obtained: […]

PI3K beta = biological target: T2, PI3K beta (Homo sapiens, UniProt P42338); assay: PI3 kinase assay (Kinase-Glo luminescence), PI3K beta; conditions: Enzymatic Data; read-out: PI3K beta IC50 [umol]
T2 construct: for the full-length p110-b subunit are generated and fused by overlapping PCR; His tag (C); made in house; host or cells: baculovirus; Tn5 (Trichoplusia ni) or TiniPro insect cells
T2 sequence (P42338 with tags, fused parts or gaps limits assumed): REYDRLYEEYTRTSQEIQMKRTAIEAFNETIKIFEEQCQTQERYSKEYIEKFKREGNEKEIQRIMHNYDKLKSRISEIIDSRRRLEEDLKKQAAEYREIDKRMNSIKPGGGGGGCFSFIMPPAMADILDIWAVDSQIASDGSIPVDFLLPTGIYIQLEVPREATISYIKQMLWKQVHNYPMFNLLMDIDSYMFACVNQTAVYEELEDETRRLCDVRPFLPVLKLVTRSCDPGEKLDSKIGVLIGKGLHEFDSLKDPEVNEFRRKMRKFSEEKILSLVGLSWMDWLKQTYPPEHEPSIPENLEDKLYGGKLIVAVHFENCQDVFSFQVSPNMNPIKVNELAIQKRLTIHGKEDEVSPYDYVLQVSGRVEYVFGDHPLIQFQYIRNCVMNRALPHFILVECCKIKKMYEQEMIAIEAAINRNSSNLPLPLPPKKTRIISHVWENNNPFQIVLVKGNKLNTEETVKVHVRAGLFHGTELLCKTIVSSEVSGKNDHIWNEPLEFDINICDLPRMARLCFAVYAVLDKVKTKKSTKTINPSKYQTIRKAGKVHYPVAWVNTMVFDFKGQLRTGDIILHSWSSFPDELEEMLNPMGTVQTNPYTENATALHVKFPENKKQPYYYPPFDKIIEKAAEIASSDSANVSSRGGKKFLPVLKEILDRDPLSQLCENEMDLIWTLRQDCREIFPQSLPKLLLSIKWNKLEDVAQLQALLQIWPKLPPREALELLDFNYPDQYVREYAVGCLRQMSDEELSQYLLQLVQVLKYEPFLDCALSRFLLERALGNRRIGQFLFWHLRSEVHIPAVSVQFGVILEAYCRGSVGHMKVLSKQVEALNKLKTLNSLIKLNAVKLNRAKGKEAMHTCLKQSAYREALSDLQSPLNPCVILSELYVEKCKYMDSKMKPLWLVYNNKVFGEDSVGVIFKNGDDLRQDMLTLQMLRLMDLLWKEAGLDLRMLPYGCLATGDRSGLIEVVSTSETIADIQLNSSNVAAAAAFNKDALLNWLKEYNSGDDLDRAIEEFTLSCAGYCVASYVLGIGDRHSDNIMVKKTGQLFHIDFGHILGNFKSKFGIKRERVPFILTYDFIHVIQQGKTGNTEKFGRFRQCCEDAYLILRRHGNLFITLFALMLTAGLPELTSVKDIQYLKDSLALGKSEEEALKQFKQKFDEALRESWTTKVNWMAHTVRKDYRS
Protocol: as §1, §2, §3, §4, §5

PI3K delta = biological target: T3, PI3K delta (Homo sapiens, UniProt O00329); assay: PI3 kinase assay (Kinase-Glo luminescence), PI3K delta; conditions: Enzymatic Data; read-out: PI3K delta IC50 [umol]
T3 construct: for the full-length p110-d subunit are generated and fused by overlapping PCR; His tag (C); made in house; host or cells: baculovirus; Tn5 (Trichoplusia ni) or TiniPro insect cells
T3 sequence (O00329 with tags, fused parts or gaps limits assumed): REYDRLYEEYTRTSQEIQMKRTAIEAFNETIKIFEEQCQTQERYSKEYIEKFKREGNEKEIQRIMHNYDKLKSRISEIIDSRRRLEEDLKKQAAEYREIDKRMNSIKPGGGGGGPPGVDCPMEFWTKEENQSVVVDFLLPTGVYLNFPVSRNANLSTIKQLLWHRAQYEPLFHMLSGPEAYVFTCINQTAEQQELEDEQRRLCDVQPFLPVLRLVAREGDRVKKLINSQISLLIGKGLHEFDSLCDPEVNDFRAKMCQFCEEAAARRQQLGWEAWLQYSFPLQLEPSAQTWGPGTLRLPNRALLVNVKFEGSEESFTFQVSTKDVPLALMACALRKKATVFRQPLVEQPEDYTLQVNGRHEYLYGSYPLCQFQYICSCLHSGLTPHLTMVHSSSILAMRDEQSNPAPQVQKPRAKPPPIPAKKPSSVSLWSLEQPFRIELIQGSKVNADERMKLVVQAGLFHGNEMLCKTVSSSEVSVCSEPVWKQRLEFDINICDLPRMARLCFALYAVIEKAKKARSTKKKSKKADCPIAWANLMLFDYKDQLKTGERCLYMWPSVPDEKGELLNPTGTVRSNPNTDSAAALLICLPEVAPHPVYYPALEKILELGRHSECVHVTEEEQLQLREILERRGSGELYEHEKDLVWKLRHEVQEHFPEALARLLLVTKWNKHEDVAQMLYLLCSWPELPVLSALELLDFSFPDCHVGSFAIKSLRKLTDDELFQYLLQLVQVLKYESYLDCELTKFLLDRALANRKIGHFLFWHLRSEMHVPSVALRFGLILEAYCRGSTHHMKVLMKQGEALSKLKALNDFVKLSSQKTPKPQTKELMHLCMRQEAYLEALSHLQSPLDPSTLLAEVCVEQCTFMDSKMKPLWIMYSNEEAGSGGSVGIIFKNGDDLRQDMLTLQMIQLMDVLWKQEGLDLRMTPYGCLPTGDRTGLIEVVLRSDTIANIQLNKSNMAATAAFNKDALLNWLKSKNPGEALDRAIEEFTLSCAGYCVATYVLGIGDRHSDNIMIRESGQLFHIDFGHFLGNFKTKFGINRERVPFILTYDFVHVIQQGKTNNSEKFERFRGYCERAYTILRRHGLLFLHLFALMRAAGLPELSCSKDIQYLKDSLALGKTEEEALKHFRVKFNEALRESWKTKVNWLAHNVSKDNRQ
Protocol: as §1, §2, §3, §4, §5

PI3K gamma = biological target: T4, PI3K gamma (Homo sapiens, UniProt P48736); assay: PI3 kinase assay (Kinase-Glo luminescence), PI3K gamma; conditions: Enzymatic Data; read-out: PI3K gamma IC50 [umol]
T4 construct: PI3Kγ BV-950 p110g(D144aa)-C-Term His Tag; His tag (C); made in house; host or cells: construct from the Roger Williams lab (MRC LMB) in pVL1393; baculovirus; Tn5 (Trichoplusia ni) or TiniPro insect cells
T4 sequence (P48736 144-1102 limits assumed): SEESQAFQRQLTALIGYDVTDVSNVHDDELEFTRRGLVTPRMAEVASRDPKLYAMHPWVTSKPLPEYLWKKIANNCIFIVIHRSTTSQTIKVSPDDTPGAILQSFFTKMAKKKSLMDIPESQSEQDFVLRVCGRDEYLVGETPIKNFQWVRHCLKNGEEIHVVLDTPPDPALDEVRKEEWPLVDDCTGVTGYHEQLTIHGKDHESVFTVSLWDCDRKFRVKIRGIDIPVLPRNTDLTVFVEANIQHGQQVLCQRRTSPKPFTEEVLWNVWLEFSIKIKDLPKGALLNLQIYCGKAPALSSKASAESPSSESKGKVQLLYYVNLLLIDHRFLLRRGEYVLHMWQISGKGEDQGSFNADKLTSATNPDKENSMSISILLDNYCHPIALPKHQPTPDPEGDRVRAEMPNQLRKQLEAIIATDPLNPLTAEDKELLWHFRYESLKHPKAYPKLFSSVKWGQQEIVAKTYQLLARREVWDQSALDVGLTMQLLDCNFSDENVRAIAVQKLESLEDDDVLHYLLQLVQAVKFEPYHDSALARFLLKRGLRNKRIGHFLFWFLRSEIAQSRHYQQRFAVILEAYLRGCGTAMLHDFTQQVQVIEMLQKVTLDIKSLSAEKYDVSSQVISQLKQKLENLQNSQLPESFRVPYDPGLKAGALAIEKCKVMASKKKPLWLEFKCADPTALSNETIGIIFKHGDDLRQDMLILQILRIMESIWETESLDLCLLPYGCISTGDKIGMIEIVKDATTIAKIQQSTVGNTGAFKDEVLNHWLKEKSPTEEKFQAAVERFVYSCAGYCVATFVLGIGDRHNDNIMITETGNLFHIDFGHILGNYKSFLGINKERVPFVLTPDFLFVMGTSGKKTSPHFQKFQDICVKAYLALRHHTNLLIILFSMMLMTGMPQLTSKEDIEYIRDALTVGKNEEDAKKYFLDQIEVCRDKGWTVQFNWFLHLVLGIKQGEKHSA
Protocol: as §1, §2, §4

[1] = Enzymatic Data, read-out: PI3K alfa IC50 [umol]

T1 sequence (P42336 with tags, fused parts or gaps limits assumed): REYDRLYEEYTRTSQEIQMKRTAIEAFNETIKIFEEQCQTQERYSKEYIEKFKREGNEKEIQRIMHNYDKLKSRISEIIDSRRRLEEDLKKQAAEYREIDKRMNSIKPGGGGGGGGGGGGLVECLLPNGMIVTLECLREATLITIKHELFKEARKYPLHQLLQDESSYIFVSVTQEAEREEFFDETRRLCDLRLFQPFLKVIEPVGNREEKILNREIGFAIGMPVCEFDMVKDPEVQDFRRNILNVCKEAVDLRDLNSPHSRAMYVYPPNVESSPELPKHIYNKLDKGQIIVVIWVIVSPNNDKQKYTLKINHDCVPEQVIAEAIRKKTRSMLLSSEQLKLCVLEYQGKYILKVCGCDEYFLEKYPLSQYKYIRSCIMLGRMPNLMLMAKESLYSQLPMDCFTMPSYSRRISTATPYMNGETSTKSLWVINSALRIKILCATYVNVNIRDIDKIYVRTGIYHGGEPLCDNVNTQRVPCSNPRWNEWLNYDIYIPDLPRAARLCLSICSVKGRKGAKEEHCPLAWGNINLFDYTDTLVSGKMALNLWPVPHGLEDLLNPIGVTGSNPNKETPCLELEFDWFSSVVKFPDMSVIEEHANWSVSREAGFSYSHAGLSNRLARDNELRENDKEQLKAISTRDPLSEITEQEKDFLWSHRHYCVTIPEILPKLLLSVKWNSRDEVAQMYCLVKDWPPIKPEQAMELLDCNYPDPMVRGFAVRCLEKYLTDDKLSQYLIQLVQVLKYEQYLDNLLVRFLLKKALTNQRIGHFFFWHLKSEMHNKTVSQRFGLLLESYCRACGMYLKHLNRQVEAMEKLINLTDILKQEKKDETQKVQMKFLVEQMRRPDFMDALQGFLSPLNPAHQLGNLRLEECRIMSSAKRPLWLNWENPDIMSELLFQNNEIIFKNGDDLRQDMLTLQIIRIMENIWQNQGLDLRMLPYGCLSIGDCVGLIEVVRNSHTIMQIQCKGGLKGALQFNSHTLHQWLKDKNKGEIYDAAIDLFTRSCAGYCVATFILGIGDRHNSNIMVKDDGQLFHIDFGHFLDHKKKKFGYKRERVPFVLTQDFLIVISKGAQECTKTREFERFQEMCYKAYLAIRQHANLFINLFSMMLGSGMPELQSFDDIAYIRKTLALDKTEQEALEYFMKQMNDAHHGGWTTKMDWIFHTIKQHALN

SMILES | IC50 (PI3K alfa; read-out: IC50 (μm) PI3K-alfa) | also measured
Nc1ccc(-c2cnc3ccc(-c4ccc(OCCCNC(=O)C5CC5)cc4)nn23)cn1 [Example 129, Cyclo-propane-carboxylic acid (3-{4-[3-(6-amino-pyridin-3-yl)-imidazo [1,2-b]pyridazin-6-yl]-phenoxy}-propyl)-amide] |  | IC50 (PI3K alfa; [1]): 223 nM; IC50 (PI3K beta): 4.15 µM; IC50 (PI3K delta): 676 nM; IC50 (PI3K gamma): 2.02 µM
O=C1CCCN1CCCOc1ccc(-c2ccc3ncc(-c4cnc5[nH]ccc5c4)n3n2)cc1F [Example 91, 1-(3-{2-Fluoro-4-[3-(1H-pyrrolo [2,3-b]pyridin-5-yl)-imidazo [1,2-b]pyridazin-6-yl]-phenoxy}-propyl)-pyrrolidin-2-one] |  | IC50 (PI3K alfa; [1]): 155 nM; IC50 (PI3K beta): 7.62 µM; IC50 (PI3K delta): 530 nM; IC50 (PI3K gamma): 6.54 µM
NC(=O)c1ccc(-c2ccc3ncc(-c4ccc(C(N)=O)cc4)n3n2)cc1 [Example 7, 4-[3-(4-Carbamoylphenyl)-imidazo[1,2-b]pyridazin-6-yl]-benzamide] | 14 nM | 
CS(=O)(=O)c1ccc(-c2cnc3ccc(-c4cnc(N)c(C(F)(F)F)c4)nn23)cc1 [Example 18, 5-[3-(4-Methanesulfonyl-phenyl)-imidazo[1,2-b]pyridazin-6-yl]-3-trifluoro-methyl-pyridin-2-ylamine] | 9.5 nM | 
Nc1ncc(-c2ccc3ncc(-c4ccc(N5CCOCC5)nc4)n3n2)cc1C(F)(F)F [Example 31, 5-[3-(6-Morpholin-4-yl-pyridin-3-yl)-imidazo[1,2-b]pyridazin-6-yl]-3-trifluoromethyl-pyridin-2-ylamine] | 4.5 nM | 
COc1cc(-c2ccc3ncc(-c4cnc(N)c(C(F)(F)F)c4)n3n2)ccc1OCCCN [Example 14, 5-{6-[4-(3-Amino-propoxy)-3-methoxy-phenyl]-imidazo[1,2-b]pyridazin-3-yl}-3-trifluoromethyl-pyridin-2-ylamine] | 39 nM | 
CC(C)N1CCC(Oc2ccc(-c3cnc4ccc(-c5cnc(N)c(C(F)(F)F)c5)nn34)cn2)CC1 [Example 29, 5-{3-[6-(1-Isopropyl-piperidin-4-yloxy)-pyridin-3-yl]-imidazo[1,2-b]pyridazin-6-yl}-3-trifluoromethyl-pyridin-2-ylamine] | 7 nM | 
NC(=O)c1ccc(-c2ccc3ncc(-c4cnc(N)c(C(F)(F)F)c4)n3n2)cc1 [Example 11, 4-[3-(6-Amino-5-trifluoromethyl-pyridin-3-yl)-imidazo[1,2-b]pyridazin-6-yl]-benzamide] | 372 nM | 
CC(C)(C)OC(=O)NCCCOc1ccc(-c2ccc3ncc(-c4cnc(N)c(C(F)(F)F)c4)n3n2)cc1OC(F)(F)F [Example 55] |  | IC50 (PI3K alfa; [1]): 6120 nM; IC50 (PI3K beta): > 9.1 µM; IC50 (PI3K delta): > 9100 nM
COc1ccc(-c2cnc3ccc(-c4ccc(OCCO)c(C(C)=O)c4)nn23)cc1OC [Example 16, 1-[5-[3-(3,4-Dimethoxy-phenyl)-imidazo[1,2-b]pyridazin-6-yl]-2-(2-hydroxy-ethoxy)-phenyl]-ethanone] | 135 nM | 
Nc1ncc(-c2ccc3ncc(-c4ccc(Nc5nc(-c6ccccc6)cs5)nc4)n3n2)cc1C(F)(F)F [Example 28, 5-{3-[6-(4-Phenyl-thiazol-2-ylamino)-pyridin-3-yl]-imidazo[1,2-b]pyridazin-6-yl}-3-trifluoromethyl-pyridin-2-ylamine] | 12 nM | 
COc1ccc(-c2ccc3ncc(-c4ccc(-c5ccc[nH]5)cc4)n3n2)cc1OC [Example 20, 6-(3,4-Dimethoxy-phenyl)-3-[4-(1H-pyrrol-2-yl)-phenyl]-imidazo[1,2-b]pyridazine] | 122 nM | 
CCOC(=O)c1cc(-c2ccc3ncc(-c4ccc(OC)c(OC)c4)n3n2)ccc1OC [Example 8, 5-[3-(3,4-Dimethoxy-phenyl)-imidazo[1,2-b]pyridazin-6-yl]-2-methoxy-benzoic acid ethyl ester] | 6 nM | 
Nc1ncc(-c2cnc3ccc(-c4cnc(N)c(C(F)(F)F)c4)nn23)cn1 [Example 79, 5-[6-(6-Amino-5-trifluoro-methyl-pyridin-3-yl)-imidazo [1,2-b]pyridazin-3-yl]-pyrimidin-2-ylamine] |  | IC50 (PI3K alfa; [1]): 15 nM; IC50 (PI3K beta): 0.004 µM; IC50 (PI3K delta): 9 nM
COc1cc(-c2cnc3ccc(-c4ccc(C(N)=O)cc4)nn23)ccc1OCCCNC(=O)OC(C)(C)C [Example 21, (3-{4-[6-(4-Carbamoyl-phenyl)-imidazo[1,2-b]pyridazin-3-yl]-2-methoxy-phenoxy}-propyl)-carbamic acid tert-butyl ester] | 292 nM | 
COc1ccc(-c2ccc3ncc(-c4ccc(S(C)(=O)=O)cc4)n3n2)cc1OC [Example 5, 6-(3,4-Dimethoxy-phenyl)-3-(4-methanesulfonyl-phenyl)-imidazo[1,2-b]pyridazine] | 1.64 nM | 
COc1ccc(-c2ccc3ncc(-c4ccc(-c5ccoc5)cc4)n3n2)cc1OC [Example 19, 6-(3,4-Dimethoxy-phenyl)-3-(4-furan-3-yl-phenyl)-imidazo[1,2-b]pyridazine] | 120 nM | 
Nc1ncc(-c2ccc3ncc(-c4ccc(O)nc4)n3n2)cc1C(F)(F)F [Example 32, 5-[6-(6-Amino-5-trifluoromethyl-pyridin-3-yl)-imidazo[1,2-b]pyridazin-3-yl]-pyridin-2-ol] | 4.9 nM | 
Nc1ncc(-c2ccc3ncc(-c4ccc(F)nc4)n3n2)cc1C(F)(F)F [Example 27, 5-[3-(6-Fluoro-pyridin-3-yl)-imidazo[1,2-b]pyridazin-6-yl]-3-trifluoromethyl-pyridin-2-ylamine] | 1.4 nM | 
COc1ccc(-c2ccc3ncc(-c4ccc(OC)c(OC)c4)n3n2)cc1OC [Example 1, 3,6-Bis-(3,4-dimethoxy-phenyl)-imidazo[1,2-b]pyridazine] | 3 nM | 
COc1cc(-c2ccc3ncc(-c4ccc(C(N)=O)cc4)n3n2)ccc1OCCCN [Example 17, 4-{6-[4-(3-Amino-propoxy)-3-methoxy-phenyl]-imidazo[1,2-b]pyridazin-3-yl}-benzamide] | 53 nM | 
COc1cc(-c2ccc3ncc(-c4cnc(N)c(C(F)(F)F)c4)n3n2)ccc1OCCCNC(=O)OC(C)(C)C [Example 10, (3-{4-[3-(6-Amino-5-trifluoromethyl-pyridin-3-yl)-imidazo[1,2-b]pyridazin-6-yl]-2-methoxy-phenoxy}-propyl)-carbamic acid tert-butyl ester] | 118 nM | 
Nc1ncc(-c2ccc3ncc(-c4cnc(N)c(C(F)(F)F)c4)n3n2)cc1C(F)(F)F [Example 6] | 3 nM | 
Nc1ncc(-c2ccc3ncc(-c4ccc(NCc5ccccc5)nc4)n3n2)cc1C(F)(F)F [Example 30, 5-[3-(6-Benzylamino-pyridin-3-yl)-imidazo[1,2-b]pyridazin-6-yl]-3-trifluoro-methyl-pyridin-2-ylamine] | 2.3 nM | 
COc1ccccc1-c1ccc2ncc(-c3ccc(C(N)=O)cc3)n2n1 [Example 9, 4-[6-(2-Methoxy-phenyl)-imidazo[1,2-b]pyridazin-3-yl]-benzamide] | 854 nM | 

Reference: patent US20100311729A1, “Substituted imidazopyridazines and pyrrolopyrimidines as lipid kinase inhibitors” (priority 2007, published 2010)
